We go through 3 molecules from US5554542A, “Immunoassay for isothiazolones” (Rohm and Haas Company, priority 1993, dated 1996).

In test [1] the test system is antibodies produced by cell culture 89-147EH9. Kind of test: CIEIA for detection of biocides, four inhibitors at several concentrations. The class given is binding, mouse. The note with it: no inhibitor 515. The method, then:
The supernatants from wells with growing colonies of hybridomas were screened using CIEIA. Ninety-six well polystyrene EIA ([…]) plates were coated with 100 μl of 651 conjugated to BSA (651-BSA) for at least two hours at room temperature or 16 hours at 4° C. Unbound material was washed from the wells with five washes of PBS-T. […] The wells then received 50 μl of supernatant from each cell culture, so that each supernatant was reacted with either buffer, 651 or 573 (inhibitors). […] The wells were incubated for 30-60 minutes at room temperature. They were then washed five times with PBS-T to remove unbound material and each well then received 100 μl of a 1 μg/ml solution of biotinylated horse anti-mouse IgG (Vector Laboratories, Burlingame, Calif.), and the assay continued as described for the ELISA, supra.

Test [2] relates to anti-651 antibody covalently linked to horseradish peroxidase. Kind of test: Colorometric determination of isothiazolones in wood with anti-651-HRP. It is filed as binding. The note with it: pressure treated Southern Yellow pine wafer, anti-651-HRP 500 ng/ml, ABTS, corrected for background; control wafer 0.002. The method, then:
Southern Yellow pine, which had been pressure treated with a solution containing 4,5-dichloro-2-n-octyl-3-isothiazolone using commercial methods, was cut into wafers (0.5×2.5 cm). These wood wafers were soaked in a solution of 3% nonfat milk for 30 minutes. The wafers were then rinsed briefly with PBS-T, and then exposed to the anti-651 antibody, which is covalently linked to horseradish peroxidase at 500 ng/ml, for 15 minutes. The wafers were then washed twice for 30 minutes each in PBS-T buffer. The bound anti-651-HRP complex was visualized by placing the wafers in a vial containing HRP substrate (ABTS). The appearance of a […] color in the solution indicated the presence of 4,5-dichloro-2-n-octyl-3-isothiazolone. A 200 μl aliquot of the solution in the vial was taken and the absorbance determined at 405 nm. This was compared to a control wood wafer treated in an identical manner but containing no isothiazolone. The absorbance values were then corrected for background.

Turning to `CNC(=O)CC(=O)O` [NMA, Nmethyl malonamic acid], the “10 Minute Absorbances × 1000” value amounted to 429 in test [1] (inhibitor concentration 0.08 ppm); 519 in test [1] (inhibitor concentration 0.4 ppm); 496 in test [1] (inhibitor concentration 2 ppm); 518 in test [1] (inhibitor concentration 10 ppm); 490 in test [1] (inhibitor concentration 50 ppm).

`CCCCCCCCn1sc(Cl)c(Cl)c1=O` [compound 287, 4,5-dichloro-2-n-octyl-3-isothiazolone]: the A405 in test [2] is on record as 0.165.

On to `CCCCCCCCn1sccc1=O` [compound 893, 2-n-octyl-3-isothiazolone], for which the “10 Minute Absorbances × 1000” value in test [1] (inhibitor concentration 2 ppm) is on record as 514; in test [1] (inhibitor concentration 10 ppm) it was 589; in test [1] (inhibitor concentration 50 ppm), 516.
